Assays:
[1] = test system: fibrosarcomas; settings: cited from earlier work
[2] = test system: PTEN-P2/GFP mouse cancer cells; test: Dose response plumbagin in PTEN-P2/GFP cells, cell counting with or without DHT; type: cell-based; settings: for % control / Average % control: 24 hours; for Average % control: mean of two experiments
Experimental: Cell counting: Cells in 12-well plates are washed once with PBS, detached using Trypsin, and transferred to a suspension vial in a final volume of 10 ml PBS. Cells are counted using a COULTER™ Multisizer II instrument (Beckman Coulter Inc., Hialeah, Fla.) gated for the appropriate cell size and corrected for particulate debris.
PTEN-P2/GFP mouse cancer cells were placed in androgen withdrawal medium in the presence or absence of DHT (dihydrotestosterone) at a final concentration of 10^−8 M. Plumbagin was added at the indicated concentrations for 24 hours. The absence of DHT simulates surgical or chemical castration. Cells were trypsinized and counted using a Cell Coulter counter Multisizer II, which excludes debris. Results represent cell numbers as percent of control (in which the number of cells in the absence of drug is 100%).
Androgen withdrawal medium: DMEM high-glucose phenol-red free, with the following additives: 10% charcoal-treated Fetal Bovine Serum, 25 ug/ml bovine pituitary extract, 5 ug/ml insulin, 6 ng/ml EGF recombinant.

[3] = test system: P388 lymphocytic leukemia; settings: cited from earlier work
[4] = test system: PTEN-P2/GFP tumor; test: In vivo effect of plumbagin added two weeks after castration, pseudo-orthotopic chamber model (Example 6); design: species or system nude mice; settings: daily plumbagin ip 2 mg/kg, from two weeks after castration
Experimental: Intravital microscopy: Fluorescence microscopy is performed using a Mikron Instrument Microscope equipped with epi-illuminator and video-triggered stroboscopic illumination from a xenon arc (MV-7600, EG&G). A silicon intensified target camera (SIT68, Dage-MTI) is attached to the microscope. A Hamamatsu image processor (Argus 20) with firmware version 2.50 (Hamamatsu Photonic System) is used for image enhancement and for the capture of images to a computer. A Zeiss Plan Neofluar 1.25×/0.035 objective is used to obtain an over-view of the chamber and to determine tumor size. A Zeiss A-Plan 10×/0.25 objective is used to capture images for calculation of vascular parameters. A Zeiss Achroplan 20×/0.5 W objective is used to capture images for calculation of mitotic and apoptotic indices. Our system permits evaluation of the following parameters.
Mitotic and Apoptotic Indices: At each time point, two peripheral and two central ×20 fields of the tumor are captured with a FITC filter and an integrated frame grabber. Only mitotic figures in metaphase-telophase (MI) are included in the mitotic indices to exclude the potential artifact of nuclear membrane distortion. Apoptotic/Pyknotic nuclei are defined as H2B-GFP labeled nuclei with a cross sectional area <30 μm^2. Nuclear karyorrhexis (NK), easily distinguishable by the vesicular nuclear condensation and brightness of H2B-GFP, is included within this apoptotic indices.
Platinum chambers were placed in the dorsal skinfold of nude mice by surgery. Two days later, minced prostate tissue from BalbC mice (syngeneic) was grafted into the chambers and allowed to vascularize for 7 to 10 days. Small tumor cells spheroids were implanted into each chamber. Tumor cells PTEN-P2 stably transfected with H2B-GFP fusion protein (PTEN-P2/GFP) were used in these experiments. The animals were surgically castrated about three weeks after implantation to inhibit androgen production. Surgical castration induces androgen deprivation, and is known in the art to effectively mimic clinical hormone therapy. Two weeks after castration, the mice were treated daily with plumbagin at 2 mg/kg ip.

CC1=CC(=O)c2c(O)cccc2C1=O [Plumbagin, 5-hydroxy-2-methylnaphthalene-1,4-dione]
ED50 [1]: 0.75 mg/kg body weight
efficiency of plumbagin with simulated castration (no DHT) versus plumbagin alone ([2]; in vitro, PTEN-P2/GFP cells): more efficient than treatment with plumbagin alone
% control ([2]; noDHT, 1 μM plumbagin, first experiment): 73.70%
Average % control ([2]; noDHT, 1 μM plumbagin): 84.83%
% control ([2]; noDHT, 1 μM plumbagin, second experiment column): 95.96%
% control ([2]; noDHT, 2 μM plumbagin, first experiment): 42.90%
Average % control ([2]; noDHT, 2 μM plumbagin): 40.02%
% control ([2]; noDHT, 2 μM plumbagin, second experiment column): 37.14%
% control ([2]; noDHT, 4 μM plumbagin, first experiment): 10.12%
Average % control ([2]; noDHT, 4 μM plumbagin): 5.84%
% control ([2]; noDHT, 4 μM plumbagin, second experiment column): 1.57%
% control ([2]; noDHT, 8 μM plumbagin, first experiment): 0.45%
Average % control ([2]; noDHT, 8 μM plumbagin): 0.33%
% control ([2]; noDHT, 8 μM plumbagin, second experiment column): 0.22%
% control ([2]; with DHT, 1 μM plumbagin, first experiment): 106.93%
Average % control ([2]; with DHT, 1 μM plumbagin): 84.11%
% control ([2]; with DHT, 1 μM plumbagin, second experiment column): 61.29%
% control ([2]; with DHT, 2 μM plumbagin, first experiment): 94.18%
Average % control ([2]; with DHT, 2 μM plumbagin): 56.67%
% control ([2]; with DHT, 2 μM plumbagin, second experiment column): 19.16%
% control ([2]; with DHT, 4 μM plumbagin, first experiment): 22.62%
Average % control ([2]; with DHT, 4 μM plumbagin): 13.76%
% control ([2]; with DHT, 4 μM plumbagin, second experiment column): 4.89%
% control ([2]; with DHT, 8 μM plumbagin, first experiment): 0.85%
Average % control ([2]; with DHT, 8 μM plumbagin): 0.62%
% control ([2]; with DHT, 8 μM plumbagin, second experiment column): 0.40%
ED50 [3]: 4 mg/kg body weight
apoptosis (AP) in tumor [4]: increasing apoptosis
efficiency of combination of plumbagin with castration versus castration alone [4]: more efficient in vivo than castration alone
mitosis (MI) in tumor [4]: mitosis increased
tumor size, castration with plumbagin [4]: significant decreases in tumor size

Source: patent publication US10245240B2, “Treatment of prostate carcinoma” (Pellficure Pharmaceuticals, Inc., priority 2010, dated 2019)
